# How the values were obtained:
# [1] = test system: powdery mildew (Uncinula necator); test: Control of powdery mildew in grape; type: in vivo; conditions: Example 7 Trial 2, 10 applications, 3 day interval
# Experimental: (§1) 10 applications […] were performed with an interval of 3 days with the 1st application being at inflorescence stage (BBCH 53). Severity of disease was evaluated in at least 20 leaves/plot, prior evaluation was performed before the first application, at 3 days after each application and at 7 and 10 days after the last application. Phytotoxicity (0 to 100%) was evaluated before each spray and at 3 days after each application. Post-harvest bunch weight was evaluated at 19 days after harvest. Control of powdery mildew was recorded as % control. Yield was evaluated as Kg/ha. Post-harvest bunch weight was recorded as g/bunch. […] 10 applications […] were performed with an interval of 3 days with the 1st application being at inflorescence stage (BBCH 53). Severity of disease was evaluated in at least 20 leaves/plot, prior evaluation was performed before the first application, at 3 days after each application and at 7 and 10 days after the last application. Phytotoxicity (0 to 100%) was evaluated before each spray and at 3 days after each application. Post-harvest bunch weight was evaluated at 19 days after harvest. Control of powdery mildew was recorded as % control. Post-harvest bunch weight was recorded as g/bunch.
# [2] = test system: grape; test: Post-harvest bunch weight in grape (Example 7); type: in vivo; conditions: 19 days after harvest, Example 7 Trial 2
# Experimental: as §1
compound,measurement,setting,value
"O=C([O-])O.[K+] [Potassium bicarbonate, potassium bicarbonate]",% Control of Uncinula necator,[1],67.7%
same,Post-harvest bunch weight (g/bunch),[2],420.3 g/bunch

# Source: patent US20250212902A1, “METHOD AND COMPOSITION FOR IMPROVEMENT OF AGRICULTURAL PRODUCE” (UPL CORPORATION LIMITED, priority 2022, published 2025)
